The structures appear in SMILES notation. Several values for one entry are separate records, joined by “and”; a condition that tells them apart may be missing. Equal values may be shown once.

One series concerns FPPS. The note with it: cited from earlier work.
The test system of series [1] is Mouse lung cancer cells (6#). Nature of the series: drug treatment of 6# cells, phase-contrast microscopy. The note with it: for effect on cell proliferation / cell death: FTI-277 15 μM, GGTI-298 15 μM, BPH-1222 10 μM. It counts as cell-based.
The next series concerns KRAS tumors. Nature of the series: zoledronate plus rapamycin in vivo. The note with it: fig. S4D, E.
In series [2] the test system is p70 S6 kinase and 4E-BP1 phosphorylation in mouse lung cancer cells (6#). Nature of the series: mTOR substrate phosphorylation by immunoblotting. It counts as cell-based. Particulars: 6# cells, rapamycin 0.1 μM, 48 h. (Immunoblotting shows a protein as a band on a membrane.)
A short description of another series: pharmacokinetics test. It counts as in vivo. Particulars: single i.v. injection 5 mg/kg, female SD rats.
The next series concerns the target T1, human GGPPS (Homo sapiens, UniProt O95749).
T1 sequence (O95749 1-300): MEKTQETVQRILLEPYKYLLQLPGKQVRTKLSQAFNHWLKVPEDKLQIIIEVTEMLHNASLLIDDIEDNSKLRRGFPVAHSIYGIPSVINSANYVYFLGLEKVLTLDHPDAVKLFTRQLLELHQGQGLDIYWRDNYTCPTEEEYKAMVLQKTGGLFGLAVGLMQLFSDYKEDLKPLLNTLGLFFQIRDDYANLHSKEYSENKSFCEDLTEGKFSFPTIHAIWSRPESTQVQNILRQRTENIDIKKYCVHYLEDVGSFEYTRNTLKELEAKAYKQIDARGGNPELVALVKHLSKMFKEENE
Nature of the series: GGPPS enzymatic inhibition assay. It counts as biochemical. Particulars: read-out: GGPPS Ki, in vitro.

In series [3] the test system is HRAS, KRAS and RAP1A prenylation in U2OS cells expressing Flag-KRAS G12D. Nature of the series: cell fractionation assay of protein prenylation. Format: cell-based. Particulars: 48 h, BPH-1222 10 μM, BPH-714 10 μM, zoledronate 20 μM.
Series [4] relates to GTP-bound KRAS in mouse lung cancer cells (M3L2). Nature of the series: KRAS-GTP pull-down with RAF-1 RBD beads. It counts as cell-based. Particulars: 48 h.
Series [5] has as its system CHOP, BiP, LC3 in mouse lung cancer cells (6#). Nature of the series: ER stress and autophagy markers by immunoblotting. Format: cell-based.

`NCCCC(O)(P(=O)(O)O)P(=O)(O)O` [alendronate]: the FPPS inhibition result with FPPS is recorded as “inhibit FPPS”.
`COC(=O)[C@H](CC(C)C)NC(=O)c1ccc(NC[C@@H](N)CS)cc1-c1cccc2ccccc12` [GGTI-298]: in [1], the “effect on cell proliferation / cell death” value was “little effect on cell proliferation”.
The same measure, in the same setting: as for `COC(=O)[C@H](CCSC)NC(=O)c1ccc(NC[C@@H](N)CS)cc1-c1ccccc1` [FTI-277], the entry is “little effect on cell proliferation”.
For `O=P(O)(O)C(O)(Cn1ccnc1)P(=O)(O)O` [zoledronate], the FPPS inhibition entry with FPPS is reported as “inhibit FPPS”. Also, the “synergy with rapamycin for killing KRAS tumors” value in the series with KRAS tumors is on record as “synergizes with rapamycin in vivo”.
As for `CO[C@H]1C[C@@H]2CC[C@@H](C)[C@@](O)(O2)C(=O)C(=O)N2CCCC[C@H]2C(=O)O[C@H]([C@H](C)C[C@@H]2CC[C@@H](O)[C@H](OC)C2)CC(=O)[C@H](C)/C=C(\C)[C@@H](O)[C@@H](OC)C(=O)[C@H](C)C[C@H](C)/C=C/C=C/C=C/1C` [rapamycin], the “phosphorylation of mTOR substrates (p70 S6 kinase and 4E-BP1)” value in series [2] is on record as “potently blocked phosphorylation”.
For `CC(C)=CCC/C(C)=C/CC/C(C)=C/CC/C(C)=C/CO` [GGOH, geranylgeraniol], the “rescue from bisphosphonate-induced cell death” value in series [1] (supplementation 10 μM with BPH-1222 10 μM, 48 h) is “substantially rescued cells”.
For the compound `O=P(O)(O)C(O)(Cc1cccnc1)P(=O)(O)O` [risedronate], the FPPS inhibition entry in the series with FPPS is listed as “inhibit FPPS”.
As usually defined, the Ki is a measure of affinity in units of concentration, obtained from inhibition or displacement. Turning to `CCCCCCCCn1cc[n+](CC(O)(P(=O)([O-])O)P(=O)(O)O)c1` (centres unmarked) [BPH-1222], in “pharmacokinetics test”, the pharmacokinetic properties entry is on record as “good pharmacokinetic properties”. For the same compound, on human GGPPS, the Ki was ~0.3 µM and 0.3 µM. Further, the “inhibition of protein farnesylation and geranylgeranylation (HRAS degradation, RAP1A dislodgement)” value in series [3] is recorded as “robustly inhibited protein farnesylation as well as protein geranylgeranylation”. Also, the “amount of GTP-bound KRAS” value in series [4] was “greatly reduced the amount of GTP-bound KRAS”. In addition, the “ER stress markers CHOP and BiP protein levels” value in [5] (6# cells, 10 μM, 1, 2, or 3 days) is reported as “potently induced”. The “time to autophagy induction (accumulation of PE-conjugated LC3)” value in series [5] (tumor cells treated with BPH-1222) is 2 to 3 days.

These data come from paper PMC4326221 (Science translational medicine, 2014).
